Reference: ChEMBL document CHEMBL3044670, “Aromatic sulfonyl hydrazides and sulfonyl hydrazones: antimicrobial activity and physical properties” (2013)
In brackets after ≈: the same amount, converted by molar mass.

Legend:
Type in all cases: functional
[1] = test system: Pseudomonas fluorescens; experiment: Antibacterial activity against Pseudomonas fluorescens ATCC 49838 after 18 to 24 hr by broth microdilution method
[2] = test system: Staphylococcus aureus; experiment: Antibacterial activity against Staphylococcus aureus ATCC 25923 at 140 ug/disc after 18 to 24 hr by disk diffusion method; details: read-out: DIZ
[3] = test system: Escherichia coli; experiment: Antibacterial activity against Escherichia coli ATCC 25922 at 140 ug/disk after 18 to 24 hr by disk diffusion method; details: read-out: DIZ
[4] = test system: Escherichia coli; experiment: Antibacterial activity against Escherichia coli ATCC 25922 after 18 to 24 hr by broth microdilution method
[5] = test system: Bacillus cereus; experiment: Antibacterial activity against Bacillus cereus ATCC 11778 after 18 to 24 hr by broth microdilution method
[6] = test system: Klebsiella aerogenes; experiment: Antibacterial activity against Enterobacter aerogenes ATCC 13048 at 140 ug/disk after 18 to 24 hr by disk diffusion method; details: read-out: DIZ
[7] = test system: Bacillus cereus; experiment: Antibacterial activity against Bacillus cereus ATCC 11778 at 140 ug/disk after 18 to 24 hr by disk diffusion method; details: read-out: DIZ
[8] = test system: Klebsiella pneumoniae; experiment: Antibacterial activity against Klebsiella pneumoniae ATCC 13883 at 140 ug/disk after 18 to 24 hr by disk diffusion method; details: read-out: DIZ
[9] = test system: Klebsiella aerogenes; experiment: Antibacterial activity against Enterobacter aerogenes ATCC 13048 after 18 to 24 hr by broth microdilution method
[10] = test system: Bacillus subtilis; experiment: Antibacterial activity against Bacillus subtilis ATCC 6633 at 140 ug/disk after 18 to 24 hr by disk diffusion method; details: read-out: DIZ
[11] = test system: Pseudomonas fluorescens; experiment: Antibacterial activity against Pseudomonas fluorescens ATCC 49838 at 140 ug/disk after 18 to 24 hr by disk diffusion method; details: read-out: DIZ
[12] = test system: Enterococcus faecalis; experiment: Antibacterial activity against Enterococcus faecalis ATCC 29212 after 18 to 24 hr by broth microdilution method
[13] = test system: Bacillus subtilis; experiment: Antibacterial activity against Bacillus subtilis ATCC 6633 after 18 to 24 hr by broth microdilution method
[14] = test system: Candida albicans; experiment: Antifungal activity against Candida albicans ATCC 90028 after 18 to 24 hr by broth microdilution method
[15] = test system: Pseudomonas aeruginosa; experiment: Antibacterial activity against Pseudomonas aeruginosa ATCC 27853 after 18 to 24 hr by broth microdilution method
[16] = test system: Enterococcus faecalis; experiment: Antibacterial activity against Enterococcus faecalis ATCC 29212 at 140 ug/disk after 18 to 24 hr by disk diffusion method; details: read-out: DIZ
[17] = test system: Staphylococcus epidermidis; experiment: Antibacterial activity against Staphylococcus epidermidis ATCC 12228 after 18 to 24 hr by broth microdilution method
[18] = test system: Pseudomonas aeruginosa; experiment: Antibacterial activity against Pseudomonas aeruginosa ATCC 27853 at 140 ug/disk after 18 to 24 hr by disk diffusion method; details: read-out: DIZ
[19] = test system: Candida albicans; experiment: Antifungal activity against Candida albicans ATCC 90028 at 140 ug/disk after 18 to 24 hr by disk diffusion method; details: read-out: DIZ
[20] = test system: Staphylococcus epidermidis; experiment: Antibacterial activity against Staphylococcus epidermidis ATCC 12228 at 140 ug/disk after 18 to 24 hr by disk diffusion method; details: read-out: DIZ
[21] = test system: Staphylococcus aureus; experiment: Antibacterial activity against Staphylococcus aureus ATCC 25923 after 18 to 24 hr by broth microdilution method
[22] = test system: Klebsiella pneumoniae; experiment: Antibacterial activity against Klebsiella pneumoniae ATCC 13883 after 18 to 24 hr by broth microdilution method
[23] = test system: Escherichia coli; experiment: Antibacterial activity against Escherichia coli ATCC 25922 at 30 ug/disk after 18 to 24 hr by disk diffusion method
[24] = test system: Bacillus subtilis; experiment: Antibacterial activity against Bacillus subtilis ATCC 6633 at 30 ug/disk after 18 to 24 hr by disk diffusion method
[25] = test system: Enterococcus faecalis; experiment: Antibacterial activity against Enterococcus faecalis ATCC 29212 at 30 ug/disk after 18 to 24 hr by disk diffusion method
[26] = test system: Candida albicans; experiment: Antifungal activity against Candida albicans ATCC 90028 at 30 ug/disk after 18 to 24 hr by disk diffusion method
[27] = test system: Pseudomonas fluorescens; experiment: Antibacterial activity against Pseudomonas fluorescens ATCC 49838 at 30 ug/disk after 18 to 24 hr by disk diffusion method
[28] = test system: Staphylococcus epidermidis; experiment: Antibacterial activity against Staphylococcus epidermidis ATCC 12228 at 30 ug/disk after 18 to 24 hr by disk diffusion method
[29] = test system: Staphylococcus aureus; experiment: Antibacterial activity against Staphylococcus aureus ATCC 25923 at 30 ug/disk after 18 to 24 hr by disk diffusion method
[30] = test system: Klebsiella pneumoniae; experiment: Antibacterial activity against Klebsiella pneumoniae ATCC 13883 at 30 ug/disk after 18 to 24 hr by disk diffusion method
[31] = test system: Pseudomonas aeruginosa; experiment: Antibacterial activity against Pseudomonas aeruginosa ATCC 27853 at 30 ug/disk after 18 to 24 hr by disk diffusion method
[32] = test system: Klebsiella aerogenes; experiment: Antibacterial activity against Enterobacter aerogenes ATCC 13048 at 30 ug/disk after 18 to 24 hr by disk diffusion method
[33] = test system: Bacillus cereus; experiment: Antibacterial activity against Bacillus cereus ATCC 11778 at 30 ug/disk after 18 to 24 hr by disk diffusion method

Molecule	MIC [1]	zone of inhibition at 140 µg/disc [2]	zone of inhibition at 140 µg/disc [3]	MIC [4]	MIC [5]	zone of inhibition at 140 µg/disc [6]	zone of inhibition at 140 µg/disc [7]	zone of inhibition at 140 µg/disc [8]	MIC [9]	zone of inhibition at 140 µg/disc [10]	zone of inhibition at 140 µg/disc [11]	MIC [12]	MIC [13]	MIC [14]	MIC [15]	zone of inhibition at 140 µg/disc [16]	MIC [17]	zone of inhibition at 140 µg/disc [18]	zone of inhibition at 140 µg/disc [19]	zone of inhibition at 140 µg/disc [20]	other results
C/C(=N\N(C)S(=O)(=O)c1ccccc1)c1ccccc1O	1000 µg/mL (≈ 3290 µM)	10 mm	11 mm	1000 µg/mL (≈ 3290 µM)	500 µg/mL (≈ 1640 µM)	5 mm	10 mm	6 mm	1000 µg/mL (≈ 3290 µM)	9 mm	11 mm	1000 µg/mL (≈ 3290 µM)	500 µg/mL (≈ 1640 µM)	500 µg/mL (≈ 1640 µM)	1000 µg/mL (≈ 3290 µM)	9 mm	500 µg/mL (≈ 1640 µM)	5 mm	12 mm	12 mm	MIC [21]: 500 µg/mL (≈ 1640 µM); MIC [22]: 1000 µg/mL (≈ 3290 µM)
NYSTATIN														0.125 µg/mL							inhibition zone (IZ) [23]: 0 mm; inhibition zone (IZ) [24]: 0 mm; inhibition zone (IZ) [25]: 0 mm; inhibition zone (IZ) [26]: 18 mm; inhibition zone (IZ) [27]: 0 mm; inhibition zone (IZ) [28]: 0 mm; inhibition zone (IZ) [29]: 0 mm; inhibition zone (IZ) [30]: 0 mm; inhibition zone (IZ) [31]: 0 mm; inhibition zone (IZ) [32]: 0 mm; inhibition zone (IZ) [33]: 0 mm
CN(N)S(=O)(=O)c1ccccc1	62.5 µg/mL (≈ 336 µM)	19 mm	18 mm	125 µg/mL (≈ 671 µM)	125 µg/mL (≈ 671 µM)	16 mm	15 mm	17 mm	125 µg/mL (≈ 671 µM)	16 mm	22 mm	250 µg/mL (≈ 1340 µM)	125 µg/mL (≈ 671 µM)	> 2000 µg/mL	62.5 µg/mL (≈ 336 µM)	15 mm	125 µg/mL (≈ 671 µM)	19 mm	0 mm	14 mm	MIC [21]: 125 µg/mL (≈ 671 µM); MIC [22]: 125 µg/mL (≈ 671 µM)
CN(/N=C/c1c(O)ccc2ccccc12)S(=O)(=O)c1ccccc1	250 µg/mL (≈ 734 µM)	19 mm	17 mm	500 µg/mL (≈ 1470 µM)	250 µg/mL (≈ 734 µM)	18 mm	26 mm	23 mm	500 µg/mL (≈ 1470 µM)	28 mm	26 mm	500 µg/mL (≈ 1470 µM)	250 µg/mL (≈ 734 µM)	500 µg/mL (≈ 1470 µM)	250 µg/mL (≈ 734 µM)	17 mm	500 µg/mL (≈ 1470 µM)	25 mm	16 mm	16 mm	MIC [21]: 500 µg/mL (≈ 1470 µM); MIC [22]: 250 µg/mL (≈ 734 µM)
O=S(=O)(NCCO)c1ccccc1	1000 µg/mL (≈ 4970 µM)	0 mm	0 mm	1000 µg/mL (≈ 4970 µM)	> 2000 µg/mL	0 mm	0 mm	0 mm	1000 µg/mL (≈ 4970 µM)	0 mm	0 mm	> 2000 µg/mL	1000 µg/mL (≈ 4970 µM)	1000 µg/mL (≈ 4970 µM)	1000 µg/mL (≈ 4970 µM)	0 mm	> 2000 µg/mL	0 mm	0 mm	0 mm	MIC [21]: > 2000 µg/mL; MIC [22]: 1000 µg/mL (≈ 4970 µM)
